Consider 15 molecules from PubChem BioAssay AID248 (DTP/NCI, 2004).

The subject of this test is L1210 leukemia ip in BDF1 mice, survival T/C. In words: NCI In Vivo Anticancer Drug Screen. Data for tumor model L1210 Leukemia (intraperitoneal) in B6D2F1 (BDF1) mice. To be noted: endpoint: mean survival time, higher = longer survival. Put shortly: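 Transplantable tumor model; survival measured in treated vs vehicle control mice. Value = treated/control.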
[1] abbreviates: dose: 100.0 mg/kg/injection, schedule: Q04DX003 (ip), vehicle: Klucel (hydroxypropylcellulose) (HPC).
Setting [2] is: dose: 200.0 mg/kg/injection, schedule: Q04DX003 (ip), vehicle: Klucel (hydroxypropylcellulose) (HPC).
Where [3] appears, read: dose: 400.0 mg/kg/injection, schedule: Q04DX003 (ip), vehicle: Klucel (hydroxypropylcellulose) (HPC).
The mark [4] stands for this setting: dose: 100.0 mg/kg/injection, schedule: Q01DX001 (ip), vehicle: saline with Tween-80.
Where [5] appears, read: dose: 200.0 mg/kg/injection, schedule: Q01DX001 (ip), vehicle: saline with Tween-80.
Setting [6] is: dose: 400.0 mg/kg/injection, schedule: Q01DX001 (ip), vehicle: saline.

Each structure is given as a SMILES string. “And” between values parts separate entries of the source, which are not always exact repeats. Identical values can stand only once. Inconclusive results and toxic doses are left out.

For the molecule `O=NN(CCF)C(=O)NCCF`, the T/C by setting is: (dose: 1.25 mg/kg/injection, schedule: Q01DX001 (ip), vehicle: saline) 113 % of control; (dose: 1.75 mg/kg/injection, schedule: Q01DX001 (ip), vehicle: saline) 118 % of control; (dose: 2.0 mg/kg/injection, schedule: Q01DX001 (ip), vehicle: saline) 116 % of control; (dose: 2.5 mg/kg/injection, schedule: Q01DX001 (ip), vehicle: saline) 118 % of control; (dose: 3.5 mg/kg/injection, schedule: Q01DX001 (ip), vehicle: saline) 161 % of control; (dose: 5.0 mg/kg/injection, schedule: Q01DX001 (ip), vehicle: saline) 156 % of control. In addition, the T/C is 242 % of control (dose: 6.0 mg/kg/injection, schedule: Q01DX001 (ip), vehicle: saline); 316 % of control (dose: 7.0 mg/kg/injection, schedule: Q01DX001 (ip), vehicle: saline); 201 % of control (dose: 8.0 mg/kg/injection, schedule: Q01DX001 (ip), vehicle: saline); 312 % of control and 333 % of control (dose: 12.0 mg/kg/injection, schedule: Q01DX001 (ip), vehicle: saline); 322 % of control (dose: 18.0 mg/kg/injection, schedule: Q01DX001 (ip), vehicle: saline).

In the case of `CCc1nc(N)nc(-c2ccccc2)c1-c1ccc([N+](=O)[O-])cc1O`, the T/C under setting [1] was 98 % of control, the T/C under setting [2] was 95 % of control and the T/C under setting [3] was 97 % of control.

On to `N#CCCP(=O)(CCC#N)CCP(=O)(CCC#N)CCC#N`, for which the T/C is, setting by setting: (dose: 100.0 mg/kg/injection, schedule: Q04DX003 (ip), vehicle: saline with Tween-80) 91 % of control; (dose: 200.0 mg/kg/injection, schedule: Q04DX003 (ip), vehicle: saline with Tween-80) 91 % of control; (dose: 400.0 mg/kg/injection, schedule: Q04DX003 (ip), vehicle: saline with Tween-80) 94 % of control.

As for `O=C(Nc1ccc(F)c([N+](=O)[O-])c1)Nc1cc([N+](=O)[O-])ccc1F`, the T/C was 96 % of control under setting [1], 93 % of control under setting [2] and 101 % of control under setting [3].

On to `COc1ccc(SC2=C(N(C)C(C)=O)C(=O)c3ccccc3C2=O)cc1`, for which the T/C was 89 % of control (dose: 7.5 mg/kg/injection, schedule: Q01DX009 (ip), vehicle: Klucel (hydroxypropylcellulose) (HPC)); 93 % of control (dose: 15.0 mg/kg/injection, schedule: Q01DX001 (ip), vehicle: Klucel (hydroxypropylcellulose) (HPC)); 92 % of control (dose: 15.0 mg/kg/injection, schedule: Q01DX009 (ip), vehicle: Klucel (hydroxypropylcellulose) (HPC)); 88 % of control (dose: 30.0 mg/kg/injection, schedule: Q01DX001 (ip), vehicle: Klucel (hydroxypropylcellulose) (HPC)); 89 % of control (dose: 30.0 mg/kg/injection, schedule: Q01DX009 (ip), vehicle: Klucel (hydroxypropylcellulose) (HPC)).

Turning to `CCOc1ccc(N=[N+]([O-])c2ccc(OCC)cc2)cc1`, the T/C under setting [4] was 103 % of control; the T/C under setting [5] is 103 % of control; the T/C (dose: 400.0 mg/kg/injection, schedule: Q01DX001 (ip), vehicle: saline with Tween-80) was 92 % of control.

On to `CCC1CN1P1(=O)OCC(C)(N)CO1` (stereo not drawn), for which the T/C is, setting by setting: (dose: 100.0 mg/kg/injection, schedule: Q01DX001 (ip), vehicle: carboxymethylcellulose (CMC)) 104 % of control; (dose: 200.0 mg/kg/injection, schedule: Q01DX001 (ip), vehicle: carboxymethylcellulose (CMC)) 101 % of control; (dose: 400.0 mg/kg/injection, schedule: Q01DX001 (ip), vehicle: carboxymethylcellulose (CMC)) 101 % of control.

For `CCN(CC)CCNc1ccc(C)c2sc3ccccc3c(=O)c12` (tested in a mixture with another compound), the T/C (dose: 6.0 mg/kg/injection, schedule: Q01DX009 (ip), vehicle: carboxymethylcellulose (CMC)) is 102 % of control; the T/C (dose: 12.0 mg/kg/injection, schedule: Q01DX009 (ip), vehicle: carboxymethylcellulose (CMC)) is 98 % of control; the T/C (dose: 17.0 mg/kg/injection, schedule: Q01DX015 (ip), vehicle: saline) is 102 % of control; the T/C (dose: 25.0 mg/kg/injection, schedule: Q01DX009 (ip), vehicle: carboxymethylcellulose (CMC)) was 109 % of control; the T/C (dose: 26.0 mg/kg/injection, schedule: Q01DX015 (ip), vehicle: carboxymethylcellulose (CMC)) was 108 % of control; the T/C (dose: 26.0 mg/kg/injection, schedule: Q01DX015 (ip), vehicle: saline) was 101 % of control. Further, the T/C (dose: 35.0 mg/kg/injection, schedule: Q01DX009 (ip), vehicle: saline) is 102 % of control; the T/C (dose: 39.0 mg/kg/injection, schedule: Q01DX015 (ip), vehicle: carboxymethylcellulose (CMC)) was 110 % of control; the T/C (dose: 40.0 mg/kg/injection, schedule: Q01DX015 (ip), vehicle: saline) was 113 % of control and 118 % of control; the T/C (dose: 59.0 mg/kg/injection, schedule: Q01DX015 (ip), vehicle: carboxymethylcellulose (CMC)) is 116 % of control; the T/C (dose: 75.0 mg/kg/injection, schedule: Q01DX009 (ip), vehicle: saline) was 104 % of control; the T/C (dose: 89.0 mg/kg/injection, schedule: Q01DX015 (ip), vehicle: saline) is 202 % of control. The T/C by setting is: (dose: 133.0 mg/kg/injection, schedule: Q01DX009 (ip), vehicle: carboxymethylcellulose (CMC)) 123 % of control; (dose: 175.0 mg/kg/injection, schedule: Q01DX001 (ip), vehicle: saline) 100 % of control; (dose: 200.0 mg/kg/injection, schedule: Q01DX015 (ip), vehicle: saline) 112 % of control; (dose: 265.0 mg/kg/injection, schedule: Q01DX001 (ip), vehicle: saline) 105 % of control; (dose: 300.0 mg/kg/injection, schedule: Q01DX015 (ip), vehicle: carboxymethylcellulose (CMC)) 91 % of control; under setting [6], 122 % of control.

For the molecule `O=C1NC(=O)C2(CCCC2)N1`, the T/C was 102 % of control (dose: 100.0 mg/kg/injection, schedule: Q01DX001 (ip), vehicle: saline); 108 % of control (dose: 200.0 mg/kg/injection, schedule: Q01DX001 (ip), vehicle: saline); 102 % of control under setting [6].

On to `Nc1cc(N)c2cccnc2c1O`, for which the T/C (dose: 2.0 mg/kg/injection, schedule: Q01DX015 (ip), vehicle: saline) is 101 % of control and the T/C (dose: 4.0 mg/kg/injection, schedule: Q01DX015 (ip), vehicle: saline) was 101 % of control.

Turning to `CCSc1nc(=S)cc(C)[nH]1`, the T/C reads like this: (dose: 100.0 mg/kg/injection, schedule: Q01DX009 (ip), vehicle: Klucel (hydroxypropylcellulose) (HPC)) 96 % of control; under setting [1], 103 % of control; (dose: 200.0 mg/kg/injection, schedule: Q01DX009 (ip), vehicle: Klucel (hydroxypropylcellulose) (HPC)) 91 % of control; under setting [2], 98 % of control; (dose: 400.0 mg/kg/injection, schedule: Q01DX009 (ip), vehicle: Klucel (hydroxypropylcellulose) (HPC)) 90 % of control; under setting [3], 87 % of control.

For the molecule `COC(=O)C1(COC(C)=O)CC1`, the T/C was 103 % of control (dose: 50.0 mg/kg/injection, schedule: Q01DX001 (ip), vehicle: saline with Tween-80); 97 % of control under setting [4]; 103 % of control under setting [5].

For `O=C(O)c1c2ccc(Cl)cc2nc2[nH]c(=O)[nH]c(=O)c12`, the T/C reads like this: (dose: 100.0 mg/kg/injection, schedule: Q04DX002 (ip), vehicle: Klucel (hydroxypropylcellulose) (HPC)) 108 % of control; (dose: 200.0 mg/kg/injection, schedule: Q04DX002 (ip), vehicle: Klucel (hydroxypropylcellulose) (HPC)) 120 % of control; (dose: 400.0 mg/kg/injection, schedule: Q04DX002 (ip), vehicle: Klucel (hydroxypropylcellulose) (HPC)) 113 % of control.

Consider `NC(=O)CSSCC(N)=O`, for which the T/C is, setting by setting: (dose: 100.0 mg/kg/injection, schedule: Q04DX003 (ip), vehicle: saline) 98 % of control; (dose: 200.0 mg/kg/injection, schedule: Q04DX003 (ip), vehicle: saline) 93 % of control.

In the case of `CC(O)C/C=N\N=C(N)N` (stereo not drawn), the T/C is 95 % of control (dose: 15.0 mg/kg/injection, schedule: Q01DX Z (ip), vehicle: methylcellulose (MC)); 101 % of control (dose: 15.0 mg/kg/injection, schedule: Q01DX Z (oral), vehicle: methylcellulose (MC)); 88 % of control (dose: 30.0 mg/kg/injection, schedule: Q01DX Z (oral), vehicle: methylcellulose (MC)); 94 % of control (dose: 60.0 mg/kg/injection, schedule: Q01DX Z (oral), vehicle: methylcellulose (MC)); 88 % of control (dose: 120.0 mg/kg/injection, schedule: Q01DX Z (oral), vehicle: methylcellulose (MC)).
